Experiment in all cases: NCI tumour cell line growth inhibition, 48 h
For experiment [1], the system named is 786-0 renal.
In experiment [2] the test system is KM12 colon.
Experiment [3] concerns OVCAR-3 ovarian.
Experiment [4] concerns OVCAR-4 ovarian.
In experiment [5] the test system is PC-3 prostate.
Experiment [6] concerns SF-295 CNS.
Experiment [7] deals with SF-539 CNS.
For experiment [8], the system named is SK-MEL-28 melanoma.
Experiment [9] concerns SNB-75 CNS.
The subject of experiment [10] is SR leukemia.

Several values for one entry are separate records, joined by “and”; a condition that tells them apart may be missing. Identical values can stand only once.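 Interpolation was linear, between the two tested concentrations surrounding the appropriate level; five concentrations were tested over 48 hours in 96-well plates. GI50 marks 50% less growth. The concentration for full growth arrest is given as TGI.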

For `COc1cc(NC(=O)NCc2ccco2)ccc1-c1ccc(NC(=O)NCc2ccco2)cc1OC`, the GI50 in experiment [1] was 2.35 µM; in experiment [2], 1.82 µM; in [3], 2.59 µM; in experiment [4] it was 1.47 µM; in experiment [5] it was 3.34 µM; in [6], 1.25 µM. In addition, the GI50 in [7] was 0.663 µM; in [8] it was 1.5 µM; in experiment [9], 1.02 µM; in experiment [10] it was 0.458 µM. Further, the TGI in [1] was 11.4 µM; in experiment [2], more than 100 µM; in [3], 16.2 µM; in [4], 3.71 µM; in experiment [5], 39.9 µM; in [6] it was 14.4 µM. In addition, the TGI in experiment [7] was 2.62 µM; in experiment [8], 5.33 µM; in experiment [9] it was 4 µM; in experiment [10] it was more than 100 µM.
For the compound `CC(C)C[C@H](NC(=O)CCn1ccc2ncccc2c1=O)B(O)O`, the GI50 in [1] was 14 µM; in [2] it was 14.6 µM; in [3] it was 4.1 µM; in experiment [4], 24.9 µM; in experiment [5], 35.2 µM; in experiment [6] it was 11.5 µM. The GI50 in [7] is 2.96 µM; in experiment [8], 6.8 µM; in [9], 14.5 µM; in experiment [10], 3.08 µM. Moreover, the TGI was more than 100 µM in [1]; 37.7 µM in experiment [2]; 20.6 µM in [3]; more than 100 µM in [4]; more than 100 µM in [5]; 43.9 µM in experiment [6]. Besides, the TGI in experiment [7] was 9.03 µM; in experiment [8], more than 76.7 µM; in experiment [9] it was 47.5 µM; in experiment [10], more than 100 µM.
For the compound `CC(C)C[C@H](NC(=O)[C@@H](NC(=O)c1cccc(-c2ccccc2)n1)[C@@H](C)O)B(O)O`, the GI50 in experiment [1] was 0.012 µM and 0.0147 µM; in [2], 0.0132 µM and 0.0127 µM; in experiment [3] it was 0.00385 µM; in [4], 0.0124 µM and 0.0185 µM; in experiment [5], 0.0236 µM; in [6], 0.0102 µM. Further, the GI50 was 0.00264 µM in [7]; 0.00473 µM in [8]; 0.0144 µM and 0.0105 µM in experiment [9]; 0.00301 µM in experiment [10]. Further, the TGI was 0.0672 µM and 0.022 µM in experiment [2]; 0.0191 µM and < 0.011 µM in experiment [3]; 79 µM in [4]; 1.94 µM in [5]; 0.0553 µM and 0.0262 µM in [6]; 0.00684 µM and < 0.0114 µM in experiment [7]. For the same compound, the TGI is 0.0419 µM and 0.0563 µM in experiment [8]; 0.0454 µM and 0.0308 µM in experiment [9]; 0.00843 µM and < 0.102 µM in experiment [10].
As for `CN1C[C@@H]2Cn3c(c(C4=C(c5cn(C)c6ccccc56)C(=O)NC4=O)c4ccccc43)C[C@H]2C1`, the GI50 in experiment [1] is 4.75 µM and 4.57 µM; in experiment [2] it was 4.49 µM and 3.67 µM; in experiment [3] it was 4.42 µM and 4.64 µM; in experiment [4], 3.36 µM and 3.48 µM; in experiment [5], 3.91 µM and 2.81 µM; in experiment [6], 3.42 µM and 3.76 µM. Besides, the GI50 was 3.97 µM and 3.57 µM in [7]; 4.34 µM and 4.35 µM in experiment [8]; 0.441 µM and 0.259 µM in experiment [9]; 4.89 µM and 1.77 µM in [10]. Further, the TGI in experiment [1] was 9.33 µM and 8.9 µM; in experiment [2] it was 9.19 µM and 7.87 µM; in experiment [3], 9.42 µM and 10.9 µM; in experiment [4], 9.12 µM and 8.91 µM; in [5], 11 µM and 7.08 µM; in experiment [6] it was 7.15 µM and 8.89 µM. In addition, the TGI is 7.83 µM and 7.12 µM in experiment [7]; 8.62 µM and 8.47 µM in experiment [8]; 3.79 µM and 3.6 µM in experiment [9]; 14.4 µM and 7.38 µM in experiment [10].
In the case of `C=C1C(=O)OC2/C=C(\CO)CC/C=C(\CO)CC(OC(=O)C(C)C)C12` (centres undefined), the TGI was 20.2 µM in [1]; 33.5 µM in [2]; 23.9 µM in [3]; 44 µM in [4]; 31.1 µM in experiment [5]; 45.5 µM in experiment [6]. The TGI in experiment [7] is 29 µM; in experiment [8], 42.4 µM; in [9], 32.2 µM; in experiment [10] it was more than 52.1 µM.
With `Cc1ncc(C(=O)Nc2ccc(CN3CCN(C)CC3)c(C(F)(F)F)c2)cc1C#Cc1c(N)ncc2ccccc12`, the GI50 in experiment [1] was 0.568 µM; in experiment [2], 0.00444 µM; in experiment [3], 0.484 µM; in experiment [4] it was 0.515 µM; in experiment [5], 0.461 µM; in experiment [6], 0.568 µM. The GI50 in experiment [7] is 0.47 µM; in [8], 0.411 µM; in experiment [9] it was 0.458 µM; in experiment [10], 0.26 µM. Besides, the TGI in experiment [1] came out at 1.05 µM; in experiment [2] it was 0.479 µM; in experiment [3], 1.04 µM; in [4] it was 2.08 µM; in [5], 0.996 µM; in [6], 1.14 µM. In addition, the TGI in experiment [7] stood at 0.914 µM; in experiment [8], 0.889 µM; in [9], 0.975 µM; in experiment [10], 1.04 µM.
For the compound `NS(=O)(=O)c1ccc(-n2ncc3c(Nc4ccccc4)ncnc32)cc1`, the GI50 is 18.3 µM in [1]; 9.63 µM in experiment [2]; 38.2 µM in experiment [3]; 32.1 µM in experiment [4]; 35.1 µM in [5]; 16.9 µM in experiment [6]. The GI50 was 36.2 µM in experiment [7], 31.6 µM in experiment [8], 33.5 µM in [9] and 29.6 µM in experiment [10]. For the same compound, the TGI in experiment [1] was 55.7 µM; in experiment [2], 46.7 µM; in experiment [3] it was more than 100 µM; in experiment [4], more than 100 µM; in experiment [5], more than 100 µM; in experiment [6], 53.4 µM. For the same compound, the TGI in experiment [7], in experiment [8], in [9] and in experiment [10] was more than 100 µM each time.

Source of the values: PubChem BioAssay (NCI).
